Source: US5231107A, “Derivatives of the oxime of 1,2,5,6-tetrahydropyridine 3-carboxaldehyde, the process for their preparation, their use as medicaments and the compositions containing them” (priority 1987, dated 1993)
Read-outs that look alike come from different tables or passages of the source.

Tests used:
[1] = Variation of the body temperature (duration of action); assay type: in vivo, male mice (CD1 Charles Rivers)
Method: (§1) The test is carried out on male mice (CD1 Charles Rivers) weighing 25-30 g, which have fasted for 6 hours.
The temperature of the body is noted by means of a thermocouple inserted about 1.5 cm in the rectum and connected to an electric temperature recorder. […]
The duration of action of the products is determined, using the doses able to reduce the temperature by 1° to 1.5° C.

in vivo [2] = details: mouse, po
Method: The test was carried out on male mice (CD1 Charles Rivers), of 22 to 24 g, without food for 16 hours. […] The mortality is noted during the 7 days following the treatment.

[3] = tested on: ileum isolated from guinea-pig; assay: Test of ileum isolated from guinea-pig; details: Cavia porcellus, agonist activity, Tyrode solution, 37° C., read-out: pD2 (negative logarithm of the dose which produces 50% of the maximum effect) (converted)
Method: Pieces of ileum are removed from guinea-pigs killed by decapitation. The isolated ileum is placed in 10 cm^3 of Tyrode solution at 37° C. and aerated with a mixture of oxygen (95%) and carbon dioxide gas (5%). The contractions due to the products are registered by means of a detector connected to a polygraph. […].
The possible antagonist activity of the products is tested vis-a-vis acetylcholine.
The agonist activity is expressed in pD2 (negative logarithm of the dose which produces 50% of the maximum effect).
The antagonist activity is expressed in DE50 (dose reducing by 50% the maximum response induced by acetylcholine).

in vivo [4] = assay: in vivo; set-up: species or system male mice (CD1 Charles Rivers); details: mouse, in vivo; oral route; male CD1 mice; method of Miller and Tainter; read-out: DE50 (dose which causes diarrhoea in 50% of the animals)
Method: The test is carried out on male mice (CD1 Charles Rivers) weighing 25 to 30 g, which have fasted for 6 hours. The product dissolved at 5% in methocel is administered by oral route by means of an oesophage probe.
Control animals receive only the excipient.
After treatment, the animals are placed separately in cages of which the base is covered with blotting paper, and they are put under observation for 30, 60, 120 and 180 minutes.
The sheets of absorbent paper are changed after each observation.
The consistency of the feces is evaluated according to the method of Randall and Baruth (Arch. Int. Pharmacodyn. 220, 94, 1976) according to the following scale of values.
1: feces slightly soft, with or without a damp halo,
2: feces slightly soft, with a well-defined circle of humidity,
3: feces soft with a large circle of humidity,
4: feces without consistency with a very large circle of humidity.
For each product, the dose is noted which causes diarrhoea in 50% of the animals according to the method of Miller and Tainter (Proc. Soc. Exp. Biol. Med., 57, 261, 1944).

Hypothermic activity = assay type: in vivo, male mice (CD1 Charles Rivers); details: Mus musculus, read-out: Effective dose (-1° C.)
Method: as §1
The temperature of the body is noted by means of a thermocouple inserted about 1.5 cm in the rectum and connected to an electric temperature recorder.
The products are administered by oral or sub-cutaneous route and the temperatures are noted at the instant 0 and at 30 minutes, 1 hour, 2 hours and 2-and-a-half hours after treatment.
The degree of hypothermia is evaluated as the difference between the treated animals and the controls, and the dose necessary to reduce the body temperature by 1° C. is noted.

COC(=O)C1=CCCN(C)C1 [Arecoline HBr, reference compound]
Variations of the body temperature ([1]; 3.5 mg/kg sc, 0 min): -0.1 °C
Variations of the body temperature ([1]; 3.5 mg/kg sc, 30 min): -1.5 °C
Variations of the body temperature ([1]; 3.5 mg/kg sc, 60 min): -0.1 °C
Variations of the body temperature ([1]; 3.5 mg/kg sc, 120 min): +0.2 °C
Variations of the body temperature ([1]; 3.5 mg/kg sc, 180 min): +0.2 °C
Variations of the body temperature ([1]; 200 mg/kg os, 0 min): +0.1 °C
Variations of the body temperature ([1]; 200 mg/kg os, 30 min): -1.1 °C
Variations of the body temperature ([1]; 200 mg/kg os, 60 min): -1.0 °C
Variations of the body temperature ([1]; 200 mg/kg os, 120 min): -0.2 °C
Variations of the body temperature ([1]; 200 mg/kg os, 180 min): -0.1 °C

CCOC(=O)N1CCC=C(C=NOC)C1 [Example 2, Methyl ether of 1-ethoxycarbonyl-1,2,5,6-tetrahydropyridin-3-carboxaldehydeoxime]
LD50 at 168 h (in vivo [2]): 175 mg/kg
EC50 [3]: 33.9 µM
Variations of the body temperature ([1]; 5. mg/kg os, 0 min): +0.2 °C
Variations of the body temperature ([1]; 5. mg/kg os, 30 min): -1.2 °C
Variations of the body temperature ([1]; 5. mg/kg os, 60 min): -1.1 °C
Variations of the body temperature ([1]; 5. mg/kg os, 120 min): -0.1 °C
Variations of the body temperature ([1]; 5. mg/kg sc, 0 min): +0.2 °C
Variations of the body temperature ([1]; 5. mg/kg sc, 30 min): -1.5 °C
Variations of the body temperature ([1]; 5. mg/kg sc, 60 min): -1.4 °C
Variations of the body temperature ([1]; 5. mg/kg sc, 120 min): -0.1 °C
ED50 (in vivo [4]): 25 mg/kg
ED (-1 C) (Hypothermic activity; oral route (O.R.)): 3.9 mg/kg
ED (-1 C) (Hypothermic activity; sub-cutaneous route (SC.R)): 3.6 mg/kg

C=CCOC(=O)N1CCC=C(C=NOC)C1 [Example 4, Methyl ether of 1-allyloxycarbonyl-1,2,5,6-tetrahydropyridin-3-carboxaldehyde oxime]
LD50 at 168 h (in vivo [2]): 175 mg/kg
EC50 [3]: > 100 µM
Variations of the body temperature ([1]; 2. mg/kg os, 0 min): -0.1 °C
Variations of the body temperature ([1]; 2. mg/kg os, 30 min): -1.2 °C
Variations of the body temperature ([1]; 2. mg/kg os, 60 min): -1.1 °C
Variations of the body temperature ([1]; 2. mg/kg os, 120 min): -0.1 °C
Variations of the body temperature ([1]; 2. mg/kg os, 180 min): -0.1 °C
Variations of the body temperature ([1]; 2. mg/kg sc, 0 min): -0.1 °C
Variations of the body temperature ([1]; 2. mg/kg sc, 30 min): -0.9 °C
Variations of the body temperature ([1]; 2. mg/kg sc, 60 min): -1.0 °C
Variations of the body temperature ([1]; 2. mg/kg sc, 120 min): -0.2 °C
Variations of the body temperature ([1]; 2. mg/kg sc, 180 min): -0.1 °C
ED50 (in vivo [4]): 3 mg/kg
ED (-1 C) (Hypothermic activity; oral route (O.R.)): 1.6 mg/kg
ED (-1 C) (Hypothermic activity; sub-cutaneous route (SC.R)): 1.8 mg/kg

CON=CC1=CCCN(C(=O)Oc2ccccc2)C1 [Example 6, Methyl ether of 1-phenyloxycarbonyl-1,2,5,6-tetrahydropyridin-3-carboxaldehyde oxime]
LD50 at 168 h (in vivo [2]): 500 mg/kg
EC50 [3]: > 100 µM
Variations of the body temperature ([1]; 3.5 mg/kg sc, 0 min): -0.1 °C
Variations of the body temperature ([1]; 3.5 mg/kg sc, 30 min): -0.6 °C
Variations of the body temperature ([1]; 3.5 mg/kg sc, 60 min): -1.4 °C
Variations of the body temperature ([1]; 3.5 mg/kg sc, 120 min): -0.9 °C
Variations of the body temperature ([1]; 3.5 mg/kg sc, 180 min): 0.1 °C
Variations of the body temperature ([1]; 7.5 mg/kg os, 0 min): -0.1 °C
Variations of the body temperature ([1]; 7.5 mg/kg os, 30 min): -1.1 °C
Variations of the body temperature ([1]; 7.5 mg/kg os, 60 min): -1.6 °C
Variations of the body temperature ([1]; 7.5 mg/kg os, 120 min): -0.6 °C
ED50 (in vivo [4]): 100 mg/kg
ED (-1 C) (Hypothermic activity; oral route (O.R.)): 4.6 mg/kg
ED (-1 C) (Hypothermic activity; sub-cutaneous route (SC.R)): 2.3 mg/kg

CON=CC1=CCCN(C(=O)Oc2ccc(Cl)cc2)C1 [Example 12, Methyl ether of 1-parachlorophenyloxy-carbonyl-1,2,5,6-tetrahydropyridin-3-carboxaldehyde oxime]
LD50 at 168 h (in vivo [2]): > 1000 mg/kg
EC50 [3]: > 100 µM
Variations of the body temperature ([1]; 3.12 mg/kg os, 0 min): +0.1 °C
Variations of the body temperature ([1]; 3.12 mg/kg os, 30 min): -0.9 °C
Variations of the body temperature ([1]; 3.12 mg/kg os, 60 min): -1.4 °C
Variations of the body temperature ([1]; 3.12 mg/kg os, 120 min): -0.3 °C
Variations of the body temperature ([1]; 3.12 mg/kg sc, 0 min): -0.1 °C
Variations of the body temperature ([1]; 3.12 mg/kg sc, 30 min): -0.1 °C
Variations of the body temperature ([1]; 3.12 mg/kg sc, 60 min): -1.1 °C
Variations of the body temperature ([1]; 3.12 mg/kg sc, 120 min): -1.2 °C
Variations of the body temperature ([1]; 3.12 mg/kg sc, 180 min): -0.5 °C
ED50 (in vivo [4]): > 50 mg/kg
ED (-1 C) (Hypothermic activity; oral route (O.R.)): 2.2 mg/kg
ED (-1 C) (Hypothermic activity; sub-cutaneous route (SC.R)): 2.9 mg/kg

CON=CC1=CCCN(C(=O)Oc2ccc(C(C)C)cc2)C1 [Example 13, Methyl ether of 1-p-isopropylphenyloxycarbonyl-1,2,5,6-tetrahydropyridin-3-carboxaldehyde oxime]
LD50 at 168 h (in vivo [2]): > 1000 mg/kg
EC50 [3]: > 100 µM
Variations of the body temperature ([1]; 6.25 mg/kg os, 0 min): +0.2 °C
Variations of the body temperature ([1]; 6.25 mg/kg os, 30 min): -0.4 °C
Variations of the body temperature ([1]; 6.25 mg/kg os, 60 min): -1.6 °C
Variations of the body temperature ([1]; 6.25 mg/kg os, 120 min): -0.4 °C
Variations of the body temperature ([1]; 6.25 mg/kg os, 180 min): -0.1 °C
Variations of the body temperature ([1]; 12.5 mg/kg sc, 0 min): +0.2 °C
Variations of the body temperature ([1]; 12.5 mg/kg sc, 60 min): -0.7 °C
Variations of the body temperature ([1]; 12.5 mg/kg sc, 120 min): -1.4 °C
Variations of the body temperature ([1]; 12.5 mg/kg sc, 180 min): -1.1 °C
ED50 (in vivo [4]): > 50 mg/kg
ED (-1 C) (Hypothermic activity; oral route (O.R.)): 3.4 mg/kg
ED (-1 C) (Hypothermic activity; sub-cutaneous route (SC.R)): 8.8 mg/kg

CON=CC1=CCCN(C(=O)Oc2ccc(OC)c(OC)c2)C1 [Example 14]
LD50 at 168 h (in vivo [2]): 175 mg/kg
EC50 [3]: > 100 µM
Variations of the body temperature ([1]; 1. mg/kg os, 0 min): +0.1 °C
Variations of the body temperature ([1]; 1. mg/kg os, 30 min): -1.1 °C
Variations of the body temperature ([1]; 1. mg/kg os, 60 min): -1.4 °C
Variations of the body temperature ([1]; 1. mg/kg os, 120 min): -0.2 °C
Variations of the body temperature ([1]; 1. mg/kg os, 180 min): +0.1 °C
Variations of the body temperature ([1]; 1. mg/kg sc, 0 min): +0.2 °C
Variations of the body temperature ([1]; 1. mg/kg sc, 30 min): -0.7 °C
Variations of the body temperature ([1]; 1. mg/kg sc, 60 min): -1.3 °C
Variations of the body temperature ([1]; 1. mg/kg sc, 120 min): -0.5 °C
ED50 (in vivo [4]): > 50 mg/kg
ED (-1 C) (Hypothermic activity; oral route (O.R.)): 0.7 mg/kg
ED (-1 C) (Hypothermic activity; sub-cutaneous route (SC.R)): 0.7 mg/kg

CON=CC1=CCCN(C(=O)Oc2ccc(Br)cc2)C1 [Example 19, 1-(4-bromophenyloxycarbonyl)-1,2,5,6-tetrahydropyridine-3-carboxaldehyde-O-methyloxime]
LD50 at 168 h (in vivo [2]): > 1000 mg/kg
EC50 [3]: > 100 µM
ED50 (in vivo [4]): > 50 mg/kg
ED (-1 C) (Hypothermic activity; oral route (O.R.)): 1.7 mg/kg
ED (-1 C) (Hypothermic activity; sub-cutaneous route (SC.R)): 1.3 mg/kg

CON=CC1=CCCN(C(=O)Oc2ccc(F)cc2)C1 [Example 20, 1(4-fluorophenyloxycarbonyl)-1,2,5,6-tetrahydropyridine-3-carboxaldehyde-O-methyloxime]
LD50 at 168 h (in vivo [2]): 500 mg/kg
EC50 [3]: > 100 µM
ED50 (in vivo [4]): > 50 mg/kg
ED (-1 C) (Hypothermic activity; oral route (O.R.)): 3.2 mg/kg
ED (-1 C) (Hypothermic activity; sub-cutaneous route (SC.R)): 1.5 mg/kg

CON=CC1=CCCN(C(=O)Oc2ccc(C)cc2)C1 [Example 21, 1-(4-methylphenyloxycarbonyl)-1,2,5,6-tetrahydropyridine-3-carboxaldehyde-O-methyloxime]
LD50 at 168 h (in vivo [2]): 250 mg/kg
EC50 [3]: > 100 µM
ED50 (in vivo [4]): > 50 mg/kg
ED (-1 C) (Hypothermic activity; oral route (O.R.)): 1.5 mg/kg
ED (-1 C) (Hypothermic activity; sub-cutaneous route (SC.R)): 1.2 mg/kg

CON=CC1=CCCN(C(=O)Oc2ccc(C(C)(C)CC(C)(C)C)cc2)C1 [Example 22, 1-[4-(1,1,3,3-tetramethylbutyl)phenyloxycarbonyl]-1,2,5,6-tetrahydropyridine-3-carboxaldehyde-O-methyloxime]
LD50 at 168 h (in vivo [2]): 500 mg/kg
EC50 [3]: 100 µM
ED50 (in vivo [4]): > 50 mg/kg
ED (-1 C) (Hypothermic activity; oral route (O.R.)): 7 mg/kg
ED (-1 C) (Hypothermic activity; sub-cutaneous route (SC.R)): 15 mg/kg
